Measurements published in the CheMixHub ionic liquid set.
± gives the uncertainty stated by the source.

Test: xn = mol fraction of the nth substance listed

CCCCCC[n+]1ccn(C)c1.O=[N+]([O-])[O-] + CCCC(C)O
100 kPa
Settings	viscosity [mPa·s]
293.15 K, x1 = 0.2408	23.7 ± 1.2
293.15 K, x1 = 0.7401	258 ± 14
293.15 K, x1 = 0.8508	417 ± 24
298.15 K, x1 = 0.1609	10.16 ± 0.53
303.15 K, x1 = 0.0814	4.67 ± 0.24
303.15 K, x1 = 0.7401	113.5 ± 6
308.15 K, x1 = 0.7401	75.3 ± 3.9
313.15 K, x1 = 0.0814	2.69 ± 0.14
323.15 K, x1 = 0.0814	1.71 ± 0.09
323.15 K, x1 = 0.6509	16.03 ± 0.83
323.15 K, x1 = 1	110.9 ± 5.8

CC[n+]1ccn(C)c1.[Br-] + O
viscosity [mPa·s], 100 kPa
Settings	288.15 K	298.15 K	303.15 K	308.15 K	318.15 K	333.15 K
x1 = 0.0001802	1.141 ± 0.043	0.911 ± 0.043	–	0.744 ± 0.043	0.627 ± 0.042	–
x1 = 0.0007203	1.147 ± 0.044	0.916 ± 0.043	–	0.748 ± 0.043	0.632 ± 0.042	–
x1 = 0.00126	1.152 ± 0.044	0.923 ± 0.043	–	0.754 ± 0.043	0.639 ± 0.042	–
x1 = 0.049	–	–	1.48 ± 0.15	–	–	0.797 ± 0.08
x1 = 0.1978	–	–	5.45 ± 0.55	–	–	–

C[NH+](C)C.O=S(=O)([N-]S(=O)(=O)C(F)(F)F)C(F)(F)F + O=C1CCCO1
101 kPa
Settings	electrical conductivity [S/m]	viscosity [mPa·s]
298.15 K, x1 = 0.0005	0.043 ± 0.002	–
298.15 K, x1 = 0.0008	0.059 ± 0.002	–
298.15 K, x2 = 0.5239	1.89 ± 0.076	–
303.15 K, x2 = 0.8088	–	3.08 ± 0.15
303.15 K, x2 = 0.8803	–	2.34 ± 0.12
313.15 K, x2 = 0.672	–	3.62 ± 0.17
313.15 K, x2 = 0.8803	–	1.86 ± 0.1
333.15 K, x2 = 0.7428	–	1.87 ± 0.1
343.15 K, x2 = 0.8803	–	0.98 ± 0.07

CCCCCn1cc[n+](C)c1.O=S(=O)([N-]S(=O)(=O)C(F)(F)F)C(F)(F)F + O
100 kPa, x2 = 0.2211
Settings	viscosity [mPa·s]
313.15 K	22.15 ± 0.19
318.15 K	18.86 ± 0.16

[I-].[Li+] + CC[n+]1ccn(C)c1.O=S(=O)([N-]S(=O)(=O)C(F)(F)F)C(F)(F)F
electrical conductivity [S/m], 101 kPa
Settings	x2 = 0.8099	x2 = 0.8475	x2 = 0.8826	x2 = 0.9207	x2 = 0.9587
288.15 K	–	0.225 ± 0.023	0.294 ± 0.03	0.385 ± 0.039	0.497 ± 0.05
298.15 K	0.286 ± 0.029	0.376 ± 0.038	0.473 ± 0.048	0.602 ± 0.06	0.744 ± 0.075
333.15 K	1.06 ± 0.11	1.25 ± 0.12	1.43 ± 0.14	1.66 ± 0.17	1.94 ± 0.19

CCCC[n+]1ccn(C)c1.O=[N+]([O-])[O-] + CCC(C)O
100 kPa
Settings	viscosity [mPa·s]
293.15 K, x1 = 0.0813	5.4 ± 1.1
293.15 K, x1 = 0.1595	7.3 ± 1.5
298.15 K, x1 = 0.1595	6.1 ± 1.2
298.15 K, x1 = 0.2402	8.4 ± 1.7
298.15 K, x1 = 0.7398	52 ± 10
298.15 K, x1 = 0.8502	79 ± 16
303.15 K, x1 = 0.1595	5.3 ± 1.1
303.15 K, x1 = 0.2402	7.2 ± 1.4
303.15 K, x1 = 0.8502	62 ± 12
308.15 K, x1 = 0.2402	6.3 ± 1.3
308.15 K, x1 = 0.35	9.4 ± 1.9
308.15 K, x1 = 0.9399	71 ± 14
308.15 K, x1 = 1	97 ± 19
313.15 K, x1 = 0.2402	5.5 ± 1.1
313.15 K, x1 = 0.35	8.2 ± 1.6
313.15 K, x1 = 0.9399	57 ± 11
313.15 K, x1 = 1	75 ± 15
318.15 K, x1 = 0.35	7.2 ± 1.4
318.15 K, x1 = 0.4403	9.7 ± 1.9
318.15 K, x1 = 1	56 ± 11
323.15 K, x1 = 0.35	6.3 ± 1.3
323.15 K, x1 = 0.4403	8.5 ± 1.7

CC(=O)[O-].Cn1cc[nH+]c1 + CCCC[N+]1(C)CCCC1.O=S(=O)([N-]S(=O)(=O)C(F)(F)F)C(F)(F)F
298.15 K, 100 kPa
Settings	viscosity [mPa·s]
x1 = 0.19	52.7 ± 1.1
x1 = 0.5	26.9 ± 0.6
x1 = 1	6.22 ± 0.14

CC[n+]1ccn(CCOC)c1.N#C[S-] + CCO
100 kPa
Settings	viscosity [mPa·s]
293.15 K, x1 = 0.1	2.15 ± 0.12
293.15 K, x1 = 0.3995	8.78 ± 0.49
293.15 K, x1 = 0.6	20 ± 1.1
293.15 K, x1 = 0.797	42.3 ± 2.4
298.15 K, x1 = 0.3002	4.94 ± 0.28
303.15 K, x1 = 0.3002	4.39 ± 0.25
303.15 K, x1 = 0.8964	35.9 ± 2
303.15 K, x1 = 1	44.3 ± 2.4
308.15 K, x1 = 0.1999	2.58 ± 0.14
308.15 K, x1 = 0.7	16.96 ± 0.94
308.15 K, x1 = 0.797	23.4 ± 1.3
308.15 K, x1 = 0.8964	29.6 ± 1.6
308.15 K, x1 = 1	36 ± 2
313.15 K, x1 = 0.3995	5.28 ± 0.29
313.15 K, x1 = 0.797	19.8 ± 1.1
318.15 K, x1 = 0.1999	2.14 ± 0.12

CCOS(=O)(=O)[O-].CC[n+]1ccn(C)c1 + O=C([O-])c1ccccc1.[Na+] + O
viscosity [mPa·s], 101.3 kPa
Settings	293.15 K	298.15 K	303.15 K	308.15 K	313.15 K
x2 = 0, x1 = 0.001795	1.073 ± 0.071	0.96 ± 0.071	0.845 ± 0.071	0.751 ± 0.071	0.679 ± 0.071
x2 = 0, x1 = 0.002698	1.107 ± 0.071	0.987 ± 0.071	0.876 ± 0.071	0.788 ± 0.071	0.709 ± 0.071
x2 = 0, x1 = 0.003589	1.136 ± 0.071	1.016 ± 0.071	0.899 ± 0.071	0.811 ± 0.071	0.727 ± 0.071

CC(=O)[O-].Cn1cc[nH+]c1 + CC(=O)[O-].C[NH+]1CCCC1
Settings	viscosity [mPa·s]
298.15 K, 100 kPa, x1 = 1	6.22 ± 0.14

CCOS(=O)(=O)[O-].CC[n+]1ccn(C)c1 + CCO + CCOC(C)(C)C
298.15 K, 101 kPa
Settings	viscosity [mPa·s]
x2 = 0, x3 = 0	100.4 ± 5.5
x2 = 0.1271, x3 = 0	65.5 ± 2
x2 = 0.1281, x3 = 0	66.1 ± 2
x2 = 0.2039, x3 = 0	49.8 ± 1.4
x2 = 0.2187, x3 = 0	47.7 ± 1.3
x2 = 0.3088, x3 = 0	34.69 ± 0.88
x2 = 0.3256, x3 = 0	32.21 ± 0.81
x2 = 0.3598, x3 = 0	28.75 ± 0.71
x2 = 0.4147, x3 = 0	22.88 ± 0.55
x2 = 0.4336, x3 = 0	21.39 ± 0.5
x2 = 0.4604, x3 = 0	18.98 ± 0.44
x2 = 0.5103, x3 = 0	15.4 ± 0.35
x2 = 0.5223, x3 = 0	14.78 ± 0.34
x2 = 0.5724, x3 = 0	11.74 ± 0.26
x2 = 0.5926, x3 = 0	10.83 ± 0.24
x2 = 0.5951, x3 = 0	10.65 ± 0.24
x2 = 0.712, x3 = 0	6.13 ± 0.14
x2 = 0.7174, x3 = 0	5.98 ± 0.14
x2 = 0.7508, x3 = 0	5.08 ± 0.12
x2 = 0.7676, x3 = 0	4.68 ± 0.11
x2 = 0.7866, x3 = 0	4.31 ± 0.1
x2 = 0.806, x3 = 0	3.86 ± 0.089
x2 = 0.8666, x3 = 0	2.709 ± 0.063
x2 = 0.9026, x3 = 0	2.189 ± 0.051
x2 = 0.9062, x3 = 0	2.138 ± 0.05
x2 = 0.9504, x3 = 0	1.628 ± 0.039
x2 = 0.9522, x3 = 0	1.589 ± 0.038

CNC(C)=O + CCCC[n+]1ccn(C)c1.F[B-](F)(F)F
101 kPa
Settings	viscosity [mPa·s]
293.15 K, x2 = 0.0711	6.4 ± 0.39
293.15 K, x2 = 0.1409	7.42 ± 0.45
293.15 K, x2 = 0.4343	19.1 ± 1.2
293.15 K, x2 = 0.7774	65.8 ± 4
298.15 K, x2 = 0.0711	5.41 ± 0.33
298.15 K, x2 = 0.2042	7.19 ± 0.44
298.15 K, x2 = 0.4992	19.7 ± 1.2
298.15 K, x2 = 0.7774	51.7 ± 3.1
303.15 K, x2 = 0.1409	5.66 ± 0.34
308.15 K, x2 = 0	3.53 ± 0.21
308.15 K, x2 = 0.714	24.7 ± 1.5
313.15 K, x2 = 0.4992	9.8 ± 0.59
318.15 K, x2 = 0.0711	3.3 ± 0.2
318.15 K, x2 = 0.1409	3.74 ± 0.23

CCCC[N+](CCCC)(CCCC)CCCC.O=S(=O)([O-])O + CCCCCCCCCO
101.3 kPa, x1 = 0.2
Settings	electrical conductivity [S/m]	viscosity [mPa·s]
293.15 K	0.00273 ± 6.8e-05	164.6 ± 4.9
298.15 K	0.00375 ± 8.8e-05	–
303.15 K	0.00499 ± 0.00011	–
308.15 K	0.00648 ± 0.00015	84.2 ± 2.1
313.15 K	0.0082 ± 0.00018	65.8 ± 1.6

CC[n+]1ccn(C)c1.F[P-](F)(F)(F)(F)F + O
viscosity [mPa·s], 100 kPa
Settings	298.15 K	303.15 K	308.15 K
x1 = 1.802e-05	0.919 ± 0.07	0.85 ± 0.07	0.777 ± 0.07
x1 = 5.406e-05	0.933 ± 0.07	0.855 ± 0.07	0.782 ± 0.07
x1 = 9.009e-05	0.948 ± 0.07	0.86 ± 0.07	0.787 ± 0.07

CCCC[n+]1ccn(C)c1C.F[B-](F)(F)F + CC[N+](C)(CC)CCOC.F[B-](F)(F)F
100 kPa, x2 = 0
Settings	electrical conductivity [S/m]
333.15 K	0.335 ± 0.02
338.15 K	0.447 ± 0.027
343.15 K	0.53 ± 0.032
348.15 K	0.63 ± 0.038

CCOS(=O)(=O)[O-].CC[N+]1(C)CCCCC1 + O
101 kPa
Settings	viscosity [mPa·s]
298.15 K, x2 = 0.1867	690 ± 120
298.15 K, x2 = 0.5338	97 ± 16
298.15 K, x2 = 0.894	7.4 ± 1.2
303.15 K, x2 = 0.894	6.2 ± 1
308.15 K, x2 = 0	800 ± 140
308.15 K, x2 = 0.4417	92 ± 15
308.15 K, x2 = 0.8593	7.7 ± 1.2
313.15 K, x2 = 0.4417	71 ± 11
313.15 K, x2 = 0.8593	6.5 ± 1
318.15 K, x2 = 0.3409	90 ± 15
323.15 K, x2 = 0.2704	93 ± 15
323.15 K, x2 = 0.7839	8.8 ± 1.4
328.15 K, x2 = 0.2704	73 ± 12
328.15 K, x2 = 0.7839	7.5 ± 1.2
333.15 K, x2 = 0.1867	80 ± 13
333.15 K, x2 = 0.7357	8.6 ± 1.4
338.15 K, x2 = 0.1867	65 ± 10
338.15 K, x2 = 0.7357	7.5 ± 1.2
343.15 K, x2 = 0	100 ± 16
343.15 K, x2 = 0.7357	6.8 ± 1.1

C[N+](C)(C)CCO.O=C([O-])[C@@H]1CCCN1 + O
viscosity [mPa·s], 100 kPa
Settings	x1 = 0.01436	x1 = 0.02022	x1 = 0.03417
308.15 K	1.18 ± 0.04	1.23 ± 0.04	–
338.15 K	–	–	1.23 ± 0.04
